Test results taken from ChEMBL document CHEMBL4715880, “Cancer Stem Cell (CSC) Inhibitors in Oncology-A Promise for a Better Therapeutic Outcome: State of the Art and Future Perspectives” (J Med Chem, 2020).
pIC50: −log10 of the molar value.

Tests used:
MDA-MB-231 [1] = experiment: Anti-CSC activity against human MDA-MB-231 cells incubated for 48 hrs by MTT assay; format: functional, cell-based; conditions: MDA-MB-231, 48 h
PC-3 [2] = experiment: Anti-CSC activity against human PC-3 cells assessed as inhibition of sphere formation at 25 nM by sphere assay relative to control; format: functional
DU-145 [3] = experiment: Anti-CSC activity against human DU145 cells incubated for 1 week with intermittent feeding of medium after day 3 by alamarblue staining based soft agar method; format: functional, cell-based
MDA-MB-231 [4] = experiment: Anti-CSC activity against human MDA-MB-231 cells by soft agar assay; format: functional, cell-based
PC-3 [5] = experiment: Anti-CSC activity against human PC-3 cells by soft agar assay; format: functional, cell-based
DU-145 [6] = experiment: Anti-CSC activity against human DU-145 cells by MTT assay; format: functional, cell-based
MDA-MB-231 [7] = experiment: Anti-CSC activity against human MDA-MB-231 cells by MTT assay; format: functional, cell-based
PC-3 [8] = experiment: Anti-CSC activity against human PC-3 cells by MTT assay; format: functional, cell-based
T47D = experiment: Anti-CSC activity against human T47D cells incubated for 48 hrs by MTT assay; format: functional, cell-based
[9] = Selectivity ratio of IC50 for […] to IC50 for human MG-63 cells
[10] = Selectivity ratio of IC50 for human hFOB1.19 cells to IC50 for human MG-63 cells
HOS-TE85 = experiment: Cytotoxicity against human MNNG/HOS cells incubated for 48 hrs by CCK-8 assay; format: functional, cell-based; conditions: HOS-TE85, 48 h
MG-63 = experiment: Cytotoxicity against human MG-63 cells incubated for 48 hrs by CCK-8 assay; format: functional, cell-based; conditions: MG-63, 48 h
[11] = Cytotoxicity against human PBMC by MTT assay; format: tissue-based
MDA-MB-231 [12] = experiment: Anti-CSC activity against human MDA-MB-231 cells assessed as inhibition of sphere formation at 250 nM by phase-contrast microscopy; format: functional
PC-3 [13] = experiment: Anti-CSC activity against human PC-3 cells incubated for 1 week by alamarblue staining based soft agar method; format: functional, cell-based; conditions: PC-3, 168 h
Homo sapiens = experiment: Anti-CSC activity in patient with pSTAT3-positive tumors assessed as overall survival time at 480 mg, po administered bid with interval of 12 hrs; format: functional
PC-3 [14] = experiment: Anti-CSC activity against human PC-3 cells assessed as inhibition of sphere formation at 2.5 uM by phase-contrast microscopy relative to control; format: functional

O=C(CCl)Nc1ccc2c(c1)CCC2
pIC50 (MDA-MB-231 [1]): 6.14 | inhibition at 0.025 µM (PC-3 [2]): > 50% | pIC50 (DU-145 [3]): 5.94

C=C(C)[C@H](CC=C(C)C)C[C@]12C[C@H](CC=C(C)C)C(C)(C)[C@](CC=C(C)C)(C(=O)C(C(=O)c3ccc(O)c(O)c3)=C1O)C2=O
pIC50 (MDA-MB-231 [4]): 5.67 | pIC50 (PC-3 [5]): 5.46 | pIC50 (DU-145 [6]): 5.54 | pIC50 (MDA-MB-231 [7]): 5.61 | pIC50 (PC-3 [8]): 5.54

N#Cc1c(NC(=O)CCl)sc2c1CCCC2
pIC50 (T47D): 6.48 | inhibition at 0.025 µM (PC-3 [2]): > 50% | pIC50 (DU-145 [3]): 6.57

Oc1ccc(/C=C/c2cc(O)cc(O)c2)cc1 [RESVERATROL]
Ratio IC50 [9]: >40 | Ratio IC50 [10]: >40 | pIC50 (HOS-TE85): 4.69 | pIC50 (MG-63): 4.54

O=C(Cn1cc(COc2ccc3ccccc3c2)nn1)Nc1ccc(Cl)cc1
pIC50 (MDA-MB-231 [1]): 5.83 | pIC50 [11]: < 4.00 | inhibition at 0.25 µM (MDA-MB-231 [12]): > 50% | pIC50 (PC-3 [13]): 4.92

CC(=O)c1cc2c(o1)C(=O)c1ccccc1C2=O [NAPABUCASIN]
Time (Homo sapiens): 5.1 months

O=C(Cn1cc(COc2cccc3ccccc23)nn1)Nc1ccc(Cl)cc1
inhibition at 2.5 µM (PC-3 [14]): 50% | pIC50 (MDA-MB-231 [1]): 5.67 | pIC50 [11]: < 4.00 | pIC50 (PC-3 [13]): 5.54
